Measurements as given in patent US10604512B2, “3-(1H-indol-2-yl)-1H-indazoles and therapeutic uses thereof” (Samumed, LLC, priority 2015, dated 2020).

How the values were obtained:
Assay type in all cases: cell-based
SW480 colon cancer cells = test: Cell viability assay (CellTiter-Blue) in SW480 colon cancer cells; details: Homo sapiens, 96 h, four days, CellTiter-Blue
Experimental: Representative compounds were screened using the following assay procedure to assess the effect on cell viability as described below.
Each compound was dissolved in DMSO as a 10 mM stock and used to prepare compound source plates. Serial dilution (1:3, 8-point dose-response curves from 10 μM to 0.0045 μM) and compound transfer was performed using the ECHO 550 (Labcyte, Sunnyvale, Calif.) into 96-well clear bottom, black-walled plates (Corning-Costar).
Approximately 2×10^3 SW480 colon cancer cells were seeded into each well and allowed to incubate in the presence or absence of compound for four days at 37° C./5% CO2. Eight replicates of DMSO-treated cells served as controls and cells treated with compound were performed in duplicate.
After incubation, 20 μL of CellTiter-Blue (Promega) was added to each well allowed to incubate for approximately 3 hours. This reagent was a buffered solution which contains resazurin, metabolically active cells were able to reduce rezarurin (blue) into resorufin (pink) which was highly fluorescent. This measured fluorescence was used as a readout for cell viability.
After incubation, the plates were read at Ex 560 nm Em 590 nm (Cytation 3, BioTek). Dose-response curves were generated and EC50 concentration values were calculated using non-linear regression curve fit in the GraphPad Prism (San Diego, Calif.) or Dotmatics' Studies Software (Bishops Stortford, UK). For EC50 of >10 μM, the percent inhibition at 10 μM is provided.

[1] = system: Wnt activity (Sp5-Luc reporter, TCF/LEF binding sites) in SW480 colon carcinoma cells; test: Screening assay for Wnt activity: Sp5-Luc reporter gene assay in stably transduced SW480 colon carcinoma cells; details: Homo sapiens, overnight incubation, 10-point curve from 10 μM
Description: The screening assay for Wnt activity is described as follows. Reporter cell lines can be generated by stably transducing cancer cell lines (e.g., colon cancer) or primary cells (e.g., IEC-6 intestinal cells) with a lentiviral construct that includes a Wnt-responsive promoter driving expression of the firefly luciferase gene.
SW480 colon carcinoma cells were transduced with a lentiviral vector expressing luciferase with a human Sp5 promoter consisting of a sequence of eight TCF/LEF binding sites. SW480 cells stably expressing the Sp5-Luc reporter gene and a hygromycin resistance gene were selected by treatment with 150 μg/mL of hygromycin for 7 days. These stably transduced SW480 cells were expanded in cell culture and used for all further screening activities. Each compound was dissolved in DMSO as a 10 mM stock and used to prepare compound source plates. Serial dilution (1:3, 10-point dose-response curves starting from 10 μM) and compound transfer was performed using the ECHO 550 (Labcyte, Sunnyvale, Calif.) into 384-well white solid bottom assay plates (Greiner Bio-One) with appropriate DMSO backfill for a final DMSO concentration of 0.1%. For Sp5-Luc reporter gene assays, the cells were plated at 4,000 cells/well in 384-well plates with medium containing 1% fetal bovine serum and incubated overnight at 37° C. and 5% CO2. Following incubation, 20 μl of BrightGlo luminescence reagent (Promega) was added to each well of the 384-well assay plates. The plates were placed on an orbital shaker for 2 min and then luminescence was quantified using the Envision (Perkin Elmer) plate reader. Readings were normalized to DMSO only treated cells, and normalized activities were utilized for EC50 calculations using the dose-response log (inhibitor) vs. response variable slope (four parameters) nonlinear regression feature available in GraphPad Prism 5.0 (or Dotmatics). For EC50 of >10 μM, the percent inhibition at 10 μM is provided.

[2] = system: Primary human fibroblasts derived from IPF patients (LL29 cells) treated with TGF-β1; test: Inhibition of the fibrotic process: αSMA staining in TGF-β1-treated primary human fibroblasts from IPF patients (LL29 cells); details: Fibroblast, 96 h, % αSMA-positive LL29 cells, TGF-β1 20 ng/mL, 4 days
Description: Representative compounds were screened using primary human fibroblasts (derived from IPF patients) treated with TGF-β1 to determine their ability to inhibit the fibrotic process.
Primary human fibroblasts derived from IPF patients (LL29 cells) [^1Xiaoqiu Liu, et. al., “Fibrotic Lung Fibroblasts Show Blunted Inhibition by cAMP Due to Deficient cAMP Response Element-Binding Protein Phosphorylation”, Journal of Pharmacology and Experimental Therapeutics (2005), 315(2), 678-687; ^2Watts, K. L., et. al., “RhoA signaling modulates cyclin D1 expression in human lung fibroblasts; implications for idiopathic pulmonary fibrosis”, Respiratory Research (2006), 7(1), 88] were obtained from American Type Culture Collection (ATCC) and expanded in F12 medium supplemented with 15% Fetal Bovine Serum and Penicillin/Streptomycin.
Each compound was dissolved in DMSO as a 10 mM stock and used to prepare compound source plates. Serial dilution (1:2, 11-point dose-response curves from 10 μM to […]) and compound transfer was performed using the ECHO 550 (Labcyte, Sunnyvale, Calif.) into 384-well clear bottom assay plates (Greiner Bio-One) with appropriate DMSO backfill for a final DMSO concentration of 0.1%. LL29 cells are plated at 1,500 cells/well in 80 μL/well F12 medium supplemented with 1% Fetal Bovine Serum. One hour after addition of the cells, TGF-β1 (Peprotech; 20 ng/mL) was added to the plates to induce fibrosis (ref 1 and 2 above). Wells treated with TGF-β1 and containing DMSO were used as controls. Cells were incubated at 37° C. and 5% CO2 for 4 days. Following incubation for 4 days, SYTOX green nucleic acid stain (Life Technologies [Thermo Fisher Scientific]) was added to the wells at a final concentration of 1 μM and incubated at room temperature for 30 min. Cells were then fixed using 4% formaldehyde (Electron Microscopy Sciences), washed 3 times with PBS followed by blocking and permeabilization using 3% Bovine Serum Albumin (BSA; Sigma) and 0.3% Triton X-100 (Sigma) in PBS. Cells were then stained with antibody specific to α-smooth muscle actin (αSMA; Abcam) (ref 1 and 2 above) in 3% Bovine Serum Albumin (BSA; Sigma) and 0.3% Triton X-100 (Sigma) in PBS, and incubated overnight at 4° C. Cells were then washed 3 times with PBS, followed by incubation with Alexa Flor-647 conjugated secondary antibody (Life Technologies [Thermo Fisher Scientific]) and DAPI at room temperature for 1 hour. Cells were then washed 3 times with PBS and plates were sealed for imaging. αSMA staining was imaged by excitation at 630 nm and emission at 665 nm and quantified using the Compartmental Analysis program on the CellInsight CX5 (Thermo Scientific). Dead or apoptotic cells were excluded from analysis based on positive SYTOX green staining. % of total cells positive for αSMA were counted in each well and normalized to the average of 11 wells treated with TGF-β1 on the same plate using Dotmatics' Studies Software. The normalized averages (fold change over untreated) of 3 replicate wells for each compound concentration were used to create dose-responses curves and EC50 values were calculated using non-linear regression curve fit in the Dotmatics' Studies Software. For EC50 of >10 μM, the percent inhibition at 10 μM is provided.

IL-6 = test: Inhibition of IL-6 in LPS-stimulated THP-1 human monocyte cells (HTRF); details: IL-6 inhibition, LPS-stimulated THP-1 cells, HTRF
Experimental: Human monocyte cell line (THP-1 cells; Catalog # TIB-202, ATCC, Manassas, Va.) were cultured in Roswell Park Memorial Institute (RPMI) 1640 Medium (Catalog #21870-100, Buffalo, N.Y.) with 1% L-glutamine, 1% HEPES, 1% Sodium Pyruvate, 2% Sodium Bicarbonate supplemented with 100 units/mL penicillin, 50 μg/mL streptomycin, 2-mercaptoethanol (0.05 mM) [basal medium] and 10% fetal bovine serum (Catalog #16140089, Life Technologies, Carlsbad, Calif.) at 37° C. and 5% CO2.
THP-1 cells were cultured in basal media with 1% FBS for 24 hours before the start of the assay. Each compound was dissolved in DMSO as a 10 mM stock and used to prepare compound source plates. Serial dilution (1:3, 10-point dose-response curves starting from 10 μM) and compound transfer was performed using the ECHO 550 (Labcyte, Sunnyvale, Calif.) into 384-well white low volume assay plates (Greiner Bio-One) with appropriate DMSO backfill for a final DMSO concentration of 0.1%. THP-1 cells were plated at 5000 cells/well in the 384-well plates and incubated at 37° C. for 2 h. 500 ng/mL of LPS was added after 2 hours and cells were incubated for another 22 hours at 37° C. Plates were spun in a centrifuge for 1 minute at […] and a mixture of anti-IL6 XL665, and anti-IL6 Cryptate diluted in reconstitution buffer (Cisbio Inc.) was added to each well. Following incubation for 3 hrs at room temperature, Homogeneous Time-Resolved Fluorescence (HTRF) was measured using the Envision (Perkin Elmer) at 665 nm and […]. The ratio of fluorescence at 665 nm to 620 nm was used as a readout for IL6 quantification. All samples were processed in duplicate. Readings were normalized to DMSO treated cells and normalized activities were utilized for EC50 calculations using the dose-response log (inhibitor) vs. response variable slope (four parameters) nonlinear regression feature available in GraphPad Prism 5.0 (or Dotmatics). For EC50 of >10 μM, the percent inhibition at 10 μM is provided.

SMILES | EC50 (SW480 colon cancer cells) [nM] | EC50 [1] [nM] | EC50 [2] [nM] | EC50 (IL-6) [nM]
CC(C)(C)CC(=O)Nc1cncc(-c2ccc3[nH]nc(-c4cc5c(-c6cccnc6)cccc5[nH]4)c3c2)c1 [Compound 100, 3,3-Dimethyl-N-(5-(3-(4-(pyridin-3-yl)-1H-indol-2-yl)-1H-indazol-5-yl)pyridin-3-yl)butanamide] | 1870 | 475 | 449 | 174
O=C(Nc1cncc(-c2ccc3[nH]nc(-c4cc5c(-c6cccnc6)cccc5[nH]4)c3c2)c1)C1CCC1 [Compound 105, N-(5-(3-(4-(Pyridin-3-yl)-1H-indol-2-yl)-1H-indazol-5-yl)pyridin-3-yl) cyclobutanecarboxamide] | 597 | 110 | 144 | 174
CC(C)CC(=O)Nc1cncc(-c2ccc3[nH]nc(-c4cc5c(-c6ccncc6)cccc5[nH]4)c3c2)c1 [Compound 114, 3-Methyl-N-(5-(3-(4-(pyridin-4-yl)-1H-indol-2-yl)-1H-indazol-5-yl)pyridin-3-yl)butanamide] | 1630 | 450 | 331 | 306
CC(C)(C)C(=O)Nc1cncc(-c2ccc3[nH]nc(-c4cc5c(-c6ccncc6)cccc5[nH]4)c3c2)c1 [Compound 120, N-(5-(3-(4-(Pyridin-4-yl)-1H-indol-2-yl)-1H-indazol-5-yl)pyridin-3-yl) pivalamide] | 1450 | 600 | 218 | 445
CC(C)CC(=O)Nc1cncc(-c2ccc3[nH]nc(-c4cc5c(-c6ccccn6)cccc5[nH]4)c3c2)c1 [Compound 142, 3-Methyl-N-(5-(3-(4-(pyridin-2-yl)-1H-indol-2-yl)-1H-indazol-5-yl)pyridin-3-yl)butanamide] | 918 | 185 | 312 | 164
CCNCc1cncc(-c2ccc3[nH]nc(-c4cc5c(-c6ccccn6)cccc5[nH]4)c3c2)c1 [Compound 146, N-((5-(3-(4-(Pyridin-2-yl)-1H-indol-2-yl)-1H-indazol-5-yl)pyridin-3-yl)methyl)ethanamine] | 1000 | 525 | 1410 | 529
O=C(Nc1cncc(-c2ccc3[nH]nc(-c4cc5c(-c6ccccn6)cccc5[nH]4)c3c2)c1)C1CCCC1 [Compound 162, N-(5-(3-(4-(Pyridin-2-yl)-1H-indol-2-yl)-1H-indazol-5-yl)pyridin-3-yl) cyclopentanecarboxamide] | 1740 | 360 | 266 | 314
c1ccc(CNCc2cncc(-c3ccc4[nH]nc(-c5cc6c(-c7ccccn7)cccc6[nH]5)c4c3)c2)cc1 [Compound 164, N-Benzyl-1-(5-(3-(4-(pyridin-2-yl)-1H-indol-2-yl)-1H-indazol-5-yl)pyridin-3-yl)methanamine] | 2290 | 564 | 191 | 214
Cc1ccncc1-c1ccc2[nH]nc(-c3cc4c(N5CCCCC5)cccc4[nH]3)c2c1 [Compound 173, 5-(4-Methylpyridin-3-yl)-3-(4-(piperidin-1-yl)-1H-indol-2-yl)-1H-indazole] | 1980 | 865 | 1780 | 4310
O=C(Cc1ccccc1)Nc1cncc(-c2ccc3[nH]nc(-c4cc5c(N6CCCCC6)cccc5[nH]4)c3c2)c1 [Compound 178, 2-Phenyl-N-(5-(3-(4-(piperidin-1-yl)-1H-indol-2-yl)-1H-indazol-5-yl)pyridin-3-yl)acetamide] | 3720 | 811 | 989 | 1290
CCCC(=O)Nc1cncc(-c2ccc3[nH]nc(-c4cc5c(N6CCCCC6)cccc5[nH]4)c3c2)c1 [Compound 185, N-(5-(3-(4-(Piperidin-1-yl)-1H-indol-2-yl)-1H-indazol-5-yl)pyridin-3-yl) butyramide] | 1840 | 469 | 682 | 7150
